In patent US8188085B2, “Antifungal agents” (Merck Sharp & Dohme Corp., priority 2008, dated 2012):

target: glucan synthase (GS) prepared from Candida albicans MY1055 (Candida albicans, UniProt O13428); assay: Glucan synthase inhibition (polymerization assay, 96-well); format: biochemical; conditions: GS from C. albicans MY1055; 60 min incubation at 22° C.; read-out: Candida Albicans GS IC50 (converted)
In short: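 Partially purified glucan synthase from C. albicans MY1055 membranes incorporated 0.5 mM ³H-UDPG with 25 μM GTP-γ-S, HEPES pH 7.5, over 60 min at 22 °C. TCA-precipitated glucan was counted by scintillation. IC50 (ng/mL) came from sigmoidal fits of duplicate 3-fold dilution series.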

Chain of glucan synthase (GS) prepared from Candida albicans MY1055 (O13428 1-1897): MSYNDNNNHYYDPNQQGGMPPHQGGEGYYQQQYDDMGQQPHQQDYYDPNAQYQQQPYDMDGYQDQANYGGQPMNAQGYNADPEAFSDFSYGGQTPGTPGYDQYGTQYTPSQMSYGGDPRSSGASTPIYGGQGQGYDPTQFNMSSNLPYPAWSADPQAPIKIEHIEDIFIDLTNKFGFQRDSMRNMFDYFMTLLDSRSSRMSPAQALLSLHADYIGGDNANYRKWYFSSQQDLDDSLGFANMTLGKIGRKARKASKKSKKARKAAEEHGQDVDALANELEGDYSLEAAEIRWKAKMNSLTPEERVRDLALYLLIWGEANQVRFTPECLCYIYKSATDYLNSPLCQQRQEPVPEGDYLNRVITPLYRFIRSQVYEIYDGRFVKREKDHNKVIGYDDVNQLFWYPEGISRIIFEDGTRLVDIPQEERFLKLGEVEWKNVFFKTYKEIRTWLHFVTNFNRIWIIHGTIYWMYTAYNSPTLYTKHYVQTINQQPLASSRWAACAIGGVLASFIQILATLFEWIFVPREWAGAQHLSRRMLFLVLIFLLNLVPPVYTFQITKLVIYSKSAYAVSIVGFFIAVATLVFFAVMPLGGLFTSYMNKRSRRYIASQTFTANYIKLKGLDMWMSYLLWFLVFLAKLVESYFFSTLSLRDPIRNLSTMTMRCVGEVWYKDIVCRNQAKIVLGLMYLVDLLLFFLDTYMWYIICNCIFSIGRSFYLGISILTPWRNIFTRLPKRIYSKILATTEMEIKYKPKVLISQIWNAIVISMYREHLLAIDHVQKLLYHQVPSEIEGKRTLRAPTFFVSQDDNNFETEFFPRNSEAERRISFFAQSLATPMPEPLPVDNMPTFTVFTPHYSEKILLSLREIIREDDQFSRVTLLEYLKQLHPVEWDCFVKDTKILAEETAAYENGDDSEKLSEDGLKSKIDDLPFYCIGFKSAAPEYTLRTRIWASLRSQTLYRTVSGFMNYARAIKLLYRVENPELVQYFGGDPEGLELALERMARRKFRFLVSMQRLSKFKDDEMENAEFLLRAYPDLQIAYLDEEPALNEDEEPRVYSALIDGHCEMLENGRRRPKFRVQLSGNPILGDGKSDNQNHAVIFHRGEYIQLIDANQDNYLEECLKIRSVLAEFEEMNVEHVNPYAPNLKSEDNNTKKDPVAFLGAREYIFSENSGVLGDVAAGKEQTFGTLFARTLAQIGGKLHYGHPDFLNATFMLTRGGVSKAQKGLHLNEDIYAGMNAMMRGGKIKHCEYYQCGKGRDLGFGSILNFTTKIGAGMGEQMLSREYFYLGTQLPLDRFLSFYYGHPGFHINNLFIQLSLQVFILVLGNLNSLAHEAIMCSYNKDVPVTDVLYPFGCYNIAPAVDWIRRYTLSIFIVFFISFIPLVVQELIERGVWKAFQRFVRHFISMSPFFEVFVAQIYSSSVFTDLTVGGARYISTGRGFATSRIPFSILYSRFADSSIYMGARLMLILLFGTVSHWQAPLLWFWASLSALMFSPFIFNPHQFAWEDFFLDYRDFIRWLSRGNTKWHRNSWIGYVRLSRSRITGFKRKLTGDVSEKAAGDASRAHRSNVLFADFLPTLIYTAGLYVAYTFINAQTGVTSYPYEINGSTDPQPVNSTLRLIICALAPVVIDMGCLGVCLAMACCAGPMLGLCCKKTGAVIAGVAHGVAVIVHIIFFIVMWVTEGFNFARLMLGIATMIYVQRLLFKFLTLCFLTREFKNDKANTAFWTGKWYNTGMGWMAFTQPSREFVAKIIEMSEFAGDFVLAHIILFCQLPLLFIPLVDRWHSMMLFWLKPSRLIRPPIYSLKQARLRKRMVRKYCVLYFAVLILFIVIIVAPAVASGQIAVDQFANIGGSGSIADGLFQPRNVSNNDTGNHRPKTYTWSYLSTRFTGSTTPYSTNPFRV

IC50	Compound
4.39 nM	CC(C)[C@@H](C)[C@@]1(C)CC[C@]2(C)[C@H]3CC[C@@H]4[C@@]5(COC[C@@]4(C)[C@@H](OC[C@](C)(N)C(C)C)[C@H](n4nccc4[N+](=O)[O-])C5)C3=CC[C@@]2(C)[C@@H]1C(=O)O (single isomer, unassigned) [Example 293B]
30.7 nM	CC(C)[C@@H](C)[C@@]1(C)CC[C@]2(C)[C@H]3CC[C@@H]4[C@@]5(COC[C@@]4(C)[C@@H](OCC4COCCN4)[C@H](n4ncnc4-c4ccncc4)C5)C3=CC[C@@]2(C)[C@@H]1C(=O)O (single isomer, unassigned) [Example 303A]

Second part, the compound before the results:

Compound	IC50
CN[C@@](C)(CO[C@H]1[C@H](n2ncnc2C(=O)NCCF)C[C@@]23COC[C@]1(C)[C@@H]2CC[C@H]1C3=CC[C@@]2(C)[C@H](C(=O)O)[C@@](C)([C@H](C)C(C)C)CC[C@]12C)C(C)C [Example 77, (1S,4aR,6aS,7R,8R,10aR,10bR,12aR,14R,15R)-15-[[(2R)-2,3-dimethyl-2-(methylamino)butyl]oxy]-8-[(1R)-1,2-dimethylpropyl]-14-[5-[[(2-fluoroethyl)amino]carbonyl]-1H-1,2,4-triazol-1-yl]-1,6,6a,7,8,9,10,10a,10b,11,12,12a-dodecahydro-1,6a,8,10a-tetramethyl-4H-1,4a-propano-2H-phenanthro[1,2-c]pyran-7-carboxylic acid]	8.09 nM
CC(C)[C@@H](C)[C@@]1(C)CC[C@]2(C)[C@H]3CC[C@@H]4[C@@]5(COC[C@@]4(C)[C@@H](OC[C@](C)(N)C(C)C)[C@H](n4ncnc4-n4cncn4)C5)C3=CC[C@@]2(C)[C@@H]1C(=O)O [Example 138, (1S,4aR,6aS,7R,8R,10aR,10bR,12aR,14R,15R)-15-[[(2R)-2-amino-2,3-dimethylbutyl]oxy]-14-[1,5′-bi-1H-1,2,4-triazol]-1′-yl-8-[(1R)-1,2-dimethylpropyl]-1,6,6a,7,8,9,10,10a,10b,11,12,12a-dodecahydro-1,6a,8,10a-tetramethyl-4H-1,4a-propano-2H-phenanthro[1,2-c]pyran-7-carboxylic acid]	8.5 nM
CC(C)[C@@H](C)[C@@]1(C)CC[C@]2(C)[C@H]3CC[C@@H]4[C@@]5(COC[C@@]4(C)[C@@H](OCC(C)(C(C)C)N(C)C)[C@H](n4cnc(Cl)n4)C5)C3=CC(=O)[C@@]2(C)[C@@H]1C(=O)O (stereo partly drawn) [Example 9C, (1S,4aR,6aS,7R,8R,10aR,10bR,12aR,14R,15R)-14-(3-chloro-1H-1,2,4-triazol-1-yl)-15-[2-(dimethylamino)-2,3-dimethylbutoxy]-8-[(1R)-1,2-dimethylpropyl]-1,6,6a,7,8,9,10,10a,10b,11,12,12a-dodecahydro-1,6a,8,10a-tetramethyl-6-oxo-4H-1,4a-propano-2H-phenanthro[1,2-c]pyran-7-carboxylic acid]	74.1 nM
CC(C)[C@@H](C)[C@@]1(C)CC[C@]2(C)[C@H]3CC[C@@H]4[C@@]5(COC[C@@]4(C)[C@@H](OC[C@H](N)C(C)(C)C)[C@H](n4cnc(N)n4)C5)C3=CC[C@@]2(C)[C@@H]1C(=O)O [Example 24, (1S,4aR,6aS,7R,8R,10aR,10bR,12aR,14R,15R)-15-[[(2R)-2-amino-3,3-dimethylbutyl]oxy]-14-(3-amino-1H-1,2,4-triazol-1-yl)-8-[(1R)-1,2-dimethylpropyl]-1,6,6a,7,8,9,10,10a,10b,11,12,12a-dodecahydro-1,6a,8,10a-tetramethyl-4H-1,4a-propano-2H-phenanthro[1,2-c]pyran-7-carboxylic acid]	16.8 nM
CC(C)[C@@H](C)[C@@]1(C)CC[C@]2(C)[C@H]3CC[C@@H]4[C@@]5(COC[C@@]4(C)[C@@H](OC[C@@]4(C)CCCN4)[C@H](n4ncnc4-c4ccncc4)C5)C3=CC[C@@]2(C)[C@@H]1C(=O)O [Example 307, (1S,4aR,6aS,7R,8R,10aR,10bR,12aR,14R,15R)-8-[(1R)-1,2-dimethylpropyl]-15-[[(2R)-2-methyl-2-pyrrolidinyl]methoxy]-14-[5-(4-pyridinyl)-1H-1,2,4-triazol-1-yl]-1,6,6a,7,8,9,10,10a,10b,11,12,12a-dodecahydro-1,6a,8,10a-tetramethyl-4H-1,4a-propano-2H-phenanthro[1,2-c]pyran-7-carboxylic acid]	5.6 nM
CC(C)[C@@H](C)[C@@]1(C)CC[C@]2(C)[C@H]3CC[C@@H]4[C@@]5(COC[C@@]4(C)[C@@H](OCC(C)(C(C)C)N(C)C)[C@H](n4ncnc4Cl)C5)C3=CC(=O)[C@@]2(C)[C@@H]1C(=O)O (stereo partly drawn) [Example 9B, (1S,4aR,6aS,7R,8R,10aR,10bR,12aR,14R,15R)-14-(5-chloro-1H-1,2,4-triazol-1-yl)-15-[2-(dimethylamino)-2,3-dimethylbutoxy]-8-[(1R)-1,2-dimethylpropyl]-1,6,6a,7,8,9,10,10a,10b,11,12,12a-dodecahydro-1,6a,8,10a-tetramethyl-6-oxo-4H-1,4a-propano-2H-phenanthro[1,2-c]pyran-7-carboxylic acid]	36.3 nM
CC(C)[C@@H](C)[C@@]1(C)CC[C@]2(C)[C@H]3CC[C@@H]4[C@@]5(COC[C@@]4(C)[C@@H](OC[C@](C)(N)C(C)C)[C@H](n4ncnc4N)C5)C3=CC[C@@]2(C)[C@@H]1C(=O)O [Example 31, (1S,4aR,6aS,7R,8R,10aR,10bR,12aR,14R,15R)-15-[[(2R)-2-amino-2,3-dimethylbutyl]oxy]-14-(5-amino-1H-1,2,4-triazol-1-yl)-8-[(1R)-1,2-dimethylpropyl]-1,6,6a,7,8,9,10,10a,10b,11,12,12a-dodecahydro-1,6a,8,10a-tetramethyl-4H-1,4a-propano-2H-phenanthro[1,2-c]pyran-7-carboxylic acid]	15.3 nM
CC(C)[C@@H](C)[C@@]1(C)CC[C@]2(C)[C@H]3CC[C@@H]4[C@@]5(COC[C@@]4(C)[C@@H](OC[C@](C)(N)C(C)(C)C)[C@H](n4ncnc4C(N)=O)C5)C3=CC[C@@]2(C)[C@@H]1C(=O)O [Example 44, (1S,4aR,6aS,7R,8R,10aR,10bR,12aR,14R,15R)-14-[5-(aminocarbonyl)-1H-1,2,4-triazol-1-yl]-15-[[(2R)-2-amino-2,3,3-trimethylbutyl]oxy]-8-[(1R)-1,2-dimethylpropyl]-1,6,6a,7,8,9,10,10a,10b,11,12,12a-dodecahydro-1,6a,8,10a-tetramethyl-4H-1,4a-propano-2H-phenanthro[1,2-c]pyran-7-carboxylic acid]	4.31 nM
CCCNS(=O)(=O)c1ncnn1[C@@H]1C[C@@]23COC[C@](C)([C@@H]2CC[C@H]2C3=CC[C@@]3(C)[C@H](C(=O)O)[C@@](C)([C@H](C)C(C)C)CC[C@]23C)[C@H]1OCC(N)(CC)CC [Example 126, (1S,4aR,6aS,7R,8R,10aR,10bR,12aR,14R,15R)-15-(2-amino-2-ethylbutoxy)-8-[(1R)-1,2-dimethylpropyl]-14-[5-[(propylamino)sulfonyl]-1H-1,2,4-triazol-1-yl]-1,6,6a,7,8,9,10,10a,10b,11,12,12a-dodecahydro-1,6a,8,10a-tetramethyl-4H-1,4a-propano-2H-phenanthro[1,2-c]pyran-7-carboxylic acid]	34.2 nM
CC(C)[C@@H](C)[C@@]1(C)CC[C@]2(C)[C@H]3CC[C@@H]4[C@@]5(COC[C@@]4(C)[C@@H](OC[C@](C)(N)C(C)C)[C@H](n4ncnc4C(=O)NCCN(C)C)C5)C3=CC[C@@]2(C)[C@@H]1C(=O)O [Example 83, (1S,4aR,6aS,7R,8R,10aR,10bR,12aR,14R,15R)-15-[[(2R)-2-amino-2,3-dimethylbutyl]oxy]-14-[5-[[[2-(dimethylamino)ethyl]amino]carbonyl]-1H-1,2,4-triazol-1-yl]-8-[(1R)-1,2-dimethylpropyl]-1,6,6a,7,8,9,10,10a,10b,11,12,12a-dodecahydro-1,6a,8,10a-tetramethyl-4H-1,4a-propano-2H-phenanthro[1,2-c]pyran-7-carboxylic acid]	12 nM
CNC(=O)c1ncnn1[C@@H]1C[C@@]23COC[C@](C)([C@@H]2CC[C@H]2C3=CC[C@@]3(C)[C@H](C(=O)O)[C@@](C)([C@H](C)C(C)C)CC[C@]23C)[C@H]1OC[C@](C)(N)C(C)(C)C [Example 89, (1S,4aR,6aS,7R,8R,10aR,10bR,12aR,14R,15R)-15-[[(2R)-2-amino-2,3,3-trimethylbutyl]oxy]-8-[(1R)-1,2-dimethylpropyl]-14-[5-[(methylamino)carbonyl]-1H-1,2,4-triazol-1-yl]-1,6,6a,7,8,9,10,10a,10b,11,12,12a-dodecahydro-1,6a,8,10a-tetramethyl-4H-1,4a-propano-2H-phenanthro[1,2-c]pyran-7-carboxylic acid]	11.3 nM
CC(C)[C@@H](C)[C@@]1(C)CC[C@]2(C)[C@H]3CC[C@@H]4[C@@]5(COC[C@@]4(C)[C@@H](OC[C@](C)(N)C(C)C)[C@H](n4cc(Cl)cn4)C5)C3=CC[C@@]2(C)[C@@H]1C(=O)O [Example 295, (1S,4aR,6aS,7R,8R,10aR,10bR,12aR,14R,15R)-15-[[(2R)-2-amino-2,3-dimethylbutyl]oxy]-14-(4-chloro-1H-pyrazol-1-yl)-8-[(1R)-1,2-dimethylpropyl]-1,6,6a,7,8,9,10,10a,10b,11,12,12a-dodecahydro-1,6a,8,10a-tetramethyl-4H-1,4a-propano-2H-phenanthro[1,2-c]pyran-7-carboxylic acid]	61 nM
CN[C@@](C)(CO[C@H]1[C@H](n2ncnc2-c2ccccc2)C[C@@]23COC[C@]1(C)[C@@H]2CC[C@H]1C3=CC[C@@]2(C)[C@H](C(=O)O)[C@@](C)([C@H](C)C(C)C)CC[C@]12C)C(C)C [Example 150, (1S,4aR,6aS,7R,8R,10aR,10bR,12aR,14R,15R)-15-[[(2R)-2,3-dimethyl-2-(methylamino)butyl]oxy]-8-[(1R)-1,2-dimethylpropyl]-14-(5-phenyl-1H-1,2,4-triazol-1-yl)-1,6,6a,7,8,9,10,10a,10b,11,12,12a-dodecahydro-1,6a,8,10a-tetramethyl-4H-1,4a-propano-2H-phenanthro[1,2-c]pyran-7-carboxylic acid]	2.74 nM
